The values that follow come from patent US20130040914A1, “PRODRUGS OF AN HIV REVERSE TRANSCRIPTASE INHIBITOR” (priority 2010, published 2013).

≈ marks a conversion by molar mass, not a printed value.

Data set [1] can be described thus: Aqueous solubility (background statement). It counts as physicochemical. The settings on record: qualitative statement in Background.
Data set [2] concerns the target HIV reverse transcriptase (Human immunodeficiency virus type 1 group M subtype B, UniProt P03366). The settings on record: qualitative statement in Background; cited from earlier work.
Data set [3] can be described thus: Water solubility at room temperature (excess solid stirred in deionized water, HPLC). To be noted: thermodynamic from solid; for solubility at 24 h: deionized water.
Method: A stir bar was then placed in the tube and the tube placed on a multi-position stirrer plate. […] The solubility of each compound was determined via HPLC, wherein a portion of the supernatant was removed from the tube, diluted with ACN:water (50:50 by volume) as necessary to achieve a suitable concentration for analysis, and then analyzed by HPLC against a standard (=a solution of the K salt of Example 1 in ACN:water 50:50 by volume). One determination was made for each compound.
HPLC: column=Agilent Zorbax Eclipse (4.6×50 mm, 1.8 micron); mobile phase=0.1% H3PO4:ACN; gradient=90% to 10% H3PO4; flow rate=1.5 mL/minute; column temperature=45° C.; injection volume=25 μL; UV sampling with detection wavelength=210 nm; run time=15 minutes.
The nature of data set [4]: Oral bioavailability in pharmacokinetic studies in animals. Format: in vivo. The settings on record: qualitative.

Turning to `N#Cc1cc(Cl)cc(Oc2c(Cl)ccn(Cc3n[nH]c4ncccc34)c2=O)c1` [Compound B, 3-chloro-5-{[4-chloro-2-oxo-1-(1H-pyrazolo[3,4-b]pyridin-3-ylmethyl)-1,2-dihydropyridin-3-yl]oxy}benzonitrile], in data set [1], the aqueous solubility result was “relatively low”. Further, the “non-nucleoside reverse transcriptase inhibition” value in data set [2] was “potent”.

`CN(CCN)C(=O)n1nc(Cn2ccc(C(F)(F)F)c(Oc3cc(Cl)cc(C#N)c3)c2=O)c2cccnc21.O=S(=O)(O)c1ccccc1` [Example 9, N-(2-Aminoethyl)-3-{[3-(3-chloro-5-cyanophenoxy)-2-oxo-4-(trifluoromethyl)pyridin-1(2H)-yl]methyl}-N-methyl-1H-pyrazolo[3,4-b]pyridine-1-carboxamide benzenesulfonate]: the solubility at 24 h in data set [3] stood at 1100 µg/mL.

For the molecule `N#Cc1cc(Cl)cc(Oc2c(C(F)(F)F)ccn(Cc3n[nH]c4ncccc34)c2=O)c1` [Compound A, 3-chloro-5-{[2-oxo-1-(1H-pyrazolo[3,4-b]pyridin-3-ylmethyl)-4-(trifluoromethyl)-1,2-dihydropyridin-3-yl]oxy}benzonitrile], the aqueous solubility result in data set [1] was “relatively low”. Also, the oral bioavailability result in data set [4] is recorded as “relatively low”. Also, in data set [2], the “non-nucleoside reverse transcriptase inhibition” value is on record as “potent”. Also, the concentration in solution in data set [3] (solubility at 24 h) was 0.2 µg/mL (≈ 0.449 µM).

`N#Cc1cc(Cl)cc(Oc2c(C(F)(F)F)ccn(Cc3nn(COP(=O)([O-])O)c4ncccc34)c2=O)c1.O.[K+]` [Example 1, Potassium (3-{[3-(3-chloro-5-cyanophenoxy)-2-oxo-4-(trifluoromethyl)pyridin-1(2H)-yl]methyl}-1H-pyrazolo[3,4-b]pyridin-1-yl)methyl hydrogen phosphate monohydrate]: in data set [3], the solubility at 4 h is 12000 µg/mL.
